Test results taken from PubChem BioAssay (NCI).
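Protocol summary: plate cells (96-well), add compound at 5 concentrations, incubate 48 h, interpolate endpoints linearly. TGI marks complete inhibition of growth.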

How the values were obtained:
Assay in all cases: growth of human tumour cells (NCI), 48 h
IGROV1 ovarian = test system: IGROV1 ovarian
HOP-92 NSCLC = test system: HOP-92 NSCLC
A549 NSCLC = test system: A549 NSCLC
RXF-631 renal = test system: RXF-631 renal
CCRF-CEM leukemia = test system: CCRF-CEM leukemia
HCT-116 colon = test system: HCT-116 colon
SNB-78 CNS = test system: SNB-78 CNS
SNB-19 CNS = test system: SNB-19 CNS
UO-31 renal = test system: UO-31 renal
DMS 273 small cell lung = test system: DMS 273 small cell lung
M19-MEL melanoma = test system: M19-MEL melanoma
HOP-62 NSCLC = test system: HOP-62 NSCLC
RXF 393 renal = test system: RXF 393 renal
TK-10 renal = test system: TK-10 renal
SK-OV-3 ovarian = test system: SK-OV-3 ovarian
ACHN renal = test system: ACHN renal
SF-295 CNS = test system: SF-295 CNS
MOLT-4 leukemia = test system: MOLT-4 leukemia
A498 renal = test system: A498 renal
UACC-257 melanoma = test system: UACC-257 melanoma
KM12 colon = test system: KM12 colon
U251 CNS = test system: U251 CNS
OVCAR-5 ovarian = test system: OVCAR-5 ovarian
NCI-H522 lung = test system: NCI-H522 lung
NCI-H460 lung = test system: NCI-H460 lung
OVCAR-8 ovarian = test system: OVCAR-8 ovarian
NCI-H226 lung = test system: NCI-H226 lung
SK-MEL-28 melanoma = test system: SK-MEL-28 melanoma
HT29 colon = test system: HT29 colon
M14 melanoma = test system: M14 melanoma
NCI-H23 lung = test system: NCI-H23 lung
HL-60(TB) leukemia = test system: HL-60(TB) leukemia
EKVX NSCLC = test system: EKVX NSCLC
SR leukemia = test system: SR leukemia
COLO 205 colon = test system: COLO 205 colon
LOX IMVI melanoma = test system: LOX IMVI melanoma
RPMI-8226 leukemia = test system: RPMI-8226 leukemia
MALME-3M melanoma = test system: MALME-3M melanoma
SK-MEL-5 melanoma = test system: SK-MEL-5 melanoma
HCC-2998 colon = test system: HCC-2998 colon
SNB-75 CNS = test system: SNB-75 CNS
DMS 114 small cell lung = test system: DMS 114 small cell lung
KM20L2 colon = test system: KM20L2 colon
OVCAR-4 ovarian = test system: OVCAR-4 ovarian
SW-620 colon = test system: SW-620 colon
SF-268 CNS = test system: SF-268 CNS
SN12C renal = test system: SN12C renal
UACC-62 melanoma = test system: UACC-62 melanoma
CAKI-1 renal = test system: CAKI-1 renal
K-562 leukemia = test system: K-562 leukemia
SK-MEL-2 melanoma = test system: SK-MEL-2 melanoma
786-0 renal = test system: 786-0 renal
LXFL 529 NSCLC = test system: LXFL 529 NSCLC
HOP-18 NSCLC = test system: HOP-18 NSCLC
DLD-1 colon = test system: DLD-1 colon
OVCAR-3 ovarian = test system: OVCAR-3 ovarian
SF-539 CNS = test system: SF-539 CNS
HCT-15 colon = test system: HCT-15 colon

SMILES: CCCC(=O)OCC1OC2OC(C)(C)OC2C2OC(C)(C)OC12 (stereo unspecified)
- TGI (IGROV1 ovarian): > 100 µM
- TGI (HOP-92 NSCLC): > 100 µM
- TGI (A549 NSCLC): > 100 µM
- TGI (RXF-631 renal): > 100 µM
- TGI (CCRF-CEM leukemia): > 100 µM
- TGI (HCT-116 colon): > 100 µM
- TGI (SNB-78 CNS): > 100 µM
- TGI (SNB-19 CNS): > 100 µM
- TGI (UO-31 renal): > 100 µM
- TGI (DMS 273 small cell lung): > 100 µM
- TGI (M19-MEL melanoma): > 100 µM
- TGI (HOP-62 NSCLC): > 100 µM
- TGI (RXF 393 renal): > 100 µM
- TGI (TK-10 renal): 61.1 µM
- TGI (SK-OV-3 ovarian): > 100 µM
- TGI (ACHN renal): > 100 µM
- TGI (SF-295 CNS): > 100 µM
- TGI (MOLT-4 leukemia): > 100 µM
- TGI (A498 renal): > 100 µM
- TGI (UACC-257 melanoma): > 100 µM
- TGI (KM12 colon): > 100 µM
- TGI (U251 CNS): > 100 µM
- TGI (OVCAR-5 ovarian): > 100 µM
- TGI (NCI-H522 lung): > 100 µM
- TGI (NCI-H460 lung): > 100 µM
- TGI (OVCAR-8 ovarian): > 100 µM
- TGI (NCI-H226 lung): > 100 µM
- TGI (SK-MEL-28 melanoma): > 100 µM
- TGI (HT29 colon): > 100 µM
- TGI (M14 melanoma): > 100 µM
- TGI (NCI-H23 lung): > 100 µM
- TGI (HL-60(TB) leukemia): > 100 µM
- TGI (EKVX NSCLC): > 100 µM
- TGI (SR leukemia): > 100 µM

SMILES: N#CCCN(CCC#N)c1ccc(/C=C(/NC(=O)c2cc([N+](=O)[O-])ccc2Cl)C(=O)N=[N+]=[N-])cc1
- TGI (COLO 205 colon): > 100 µM
- TGI (IGROV1 ovarian): > 100 µM
- TGI (LOX IMVI melanoma): > 100 µM
- TGI (RPMI-8226 leukemia): > 100 µM
- TGI (A549 NSCLC): > 100 µM
- TGI (MALME-3M melanoma): > 100 µM
- TGI (SK-MEL-5 melanoma): > 100 µM
- TGI (HCC-2998 colon): > 100 µM
- TGI (SNB-75 CNS): > 100 µM
- TGI (DMS 114 small cell lung): > 100 µM
- TGI (RXF-631 renal): > 100 µM
- TGI (CCRF-CEM leukemia): > 100 µM
- TGI (KM20L2 colon): > 100 µM
- TGI (HCT-116 colon): > 100 µM
- TGI (SNB-78 CNS): > 100 µM
- TGI (OVCAR-4 ovarian): > 100 µM
- TGI (SW-620 colon): > 100 µM
- TGI (SNB-19 CNS): > 100 µM
- TGI (SF-268 CNS): > 100 µM
- TGI (UO-31 renal): > 100 µM
- TGI (DMS 273 small cell lung): > 100 µM
- TGI (SN12C renal): > 100 µM
- TGI (M19-MEL melanoma): > 100 µM
- TGI (HOP-62 NSCLC): > 100 µM
- TGI (RXF 393 renal): > 100 µM
- TGI (TK-10 renal): > 100 µM
- TGI (SK-OV-3 ovarian): > 100 µM
- TGI (UACC-62 melanoma): > 100 µM
- TGI (CAKI-1 renal): > 100 µM
- TGI (ACHN renal): > 100 µM
- TGI (SF-295 CNS): > 100 µM
- TGI (MOLT-4 leukemia): > 100 µM
- TGI (A498 renal): > 100 µM
- TGI (UACC-257 melanoma): > 100 µM
- TGI (K-562 leukemia): > 100 µM
- TGI (KM12 colon): > 100 µM
- TGI (U251 CNS): > 100 µM
- TGI (OVCAR-5 ovarian): > 100 µM
- TGI (SK-MEL-2 melanoma): > 100 µM
- TGI (786-0 renal): > 100 µM
- TGI (NCI-H522 lung): > 100 µM
- TGI (NCI-H460 lung): > 100 µM
- TGI (OVCAR-8 ovarian): > 100 µM
- TGI (LXFL 529 NSCLC): > 100 µM
- TGI (NCI-H226 lung): > 100 µM
- TGI (SK-MEL-28 melanoma): > 100 µM
- TGI (HT29 colon): > 100 µM
- TGI (M14 melanoma): > 100 µM
- TGI (HOP-18 NSCLC): > 100 µM
- TGI (DLD-1 colon): > 100 µM
- TGI (NCI-H23 lung): > 100 µM
- TGI (HL-60(TB) leukemia): > 100 µM
- TGI (EKVX NSCLC): > 100 µM
- TGI (SR leukemia): > 100 µM
- TGI (OVCAR-3 ovarian): > 100 µM
- TGI (SF-539 CNS): > 100 µM
- TGI (HCT-15 colon): > 100 µM
